Where two headings read alike, the source gives them in different places.
Tests used:
MV-4-11 cells = assay: Oncology cell growth assay MV-4-11 (CellTiter Glo); format: cell-based; conditions: Homo sapiens, MV4-11, 72 h, read-out: Cell activity (IC50 μM) MV-4-11 3d-Growth
Method in brief: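 Growth read by CellTiter Glo luminescence after 72 h compound treatment of MLL-AF4-bearing MV-4-11 cells (3000/well). Titration: 8 points, 1:3 steps, maximum 10 μM, 0.2% DMSO final. Data normalized to DMSO wells, four-parameter fit gives pIC50.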

bromodomain = assay: at least one of the bromodomain cell assays of Example 57; format: cell-based; conditions: at least one of the bromodomain cell assays described in Example 57; read-out: IC50 in at least one of the bromodomain cell assays
BRD4-BD12 (1-477) = BRD4-BD12 (1-477) (Homo sapiens (Human), UniProt O60885); assay: Alphascreen binding assay BRD4-BD12; conditions: BRD4(1 2) H4; read-out: Biochemical activity (IC50 μM) BRD4(1 2) H4
Method in brief: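 In this competition format, compounds displace a biotinylated tetra-acetyl H4 peptide from E. coli-expressed human BRD4 bromodomain constructs captured on nickel chelate beads. The reaction runs at pH 7.5 with 2 mM DTT and detergent for 1 h at room temperature before a 30 min bead step.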

| Compound | IC50 (MV-4-11 cells; MV-4-11, 3d growth) | IC50 (bromodomain) | IC50 (BRD4-BD12 (1-477)) | IC50 (MV-4-11 cells) |
| --- | --- | --- | --- | --- |
| CCOC(=O)c1ccc(-c2cn(CC3CCC(F)(F)CC3)c3cc(-c4c(C)noc4C)cnc23)cc1Cl [P-0534, ethyl 2-chloro-4-[1-[(4,4-difluorocyclohexyl)methyl]-6-(3,5-dimethylisoxazol-4-yl)pyrrolo[3,2-b]pyridin-3-yl]benzoate] | 1 to 10 µM | < 10000 nM | < 1 µM |  |
| Cc1noc(C)c1-c1cnc2c(-c3cnn(CC(F)(F)F)c3)cn(Cc3ccccn3)c2c1 [P-0376, 3,5-dimethyl-4-[1-(2-pyridylmethyl)-3-[1-(2,2,2-trifluoroethyl)pyrazol-4-yl]pyrrolo[3,2-b]pyridin-6-yl]isoxazole] |  | < 10000 nM | < 1 µM | < 1 µM |
| Cc1noc(C)c1-c1cnc2c(-c3cnn(C(F)F)c3)cn([C@H](C)c3ccc(F)cc3)c2c1 [P-0352, 4-[3-[1-(difluoromethyl)pyrazol-4-yl]-1-[(1R)-1-(4-fluorophenyl)ethyl]pyrrolo[3,2-b]pyridin-6-yl]-3,5-dimethyl-isoxazole] |  | < 10000 nM | < 1 µM | < 1 µM |
| Cc1noc(C)c1-c1cnc2c(c1)c(CC1CCC(F)(F)CC1)cn2-c1ccc(C(=O)NC2CC2)cn1 [P-0533, N-cyclopropyl-6-[3-[(4,4-difluorocyclohexyl)methyl]-5-(3,5-dimethylisoxazol-4-yl)pyrrolo[2,3-b]pyridin-1-yl]pyridine-3-carboxamide] | < 1 µM | < 10000 nM | < 1 µM |  |
| Cc1cc(-c2cnc3c(-c4cnn(CC(F)(F)F)c4)cn(CC4CCC(F)(F)CC4)c3c2)cn(C)c1=O [P-0541, 5-[1-[(4,4-difluorocyclohexyl)methyl]-3-[1-(2,2,2-trifluoroethyl)pyrazol-4-yl]pyrrolo[3,2-b]pyridin-6-yl]-1,3-dimethyl-pyridin-2-one] | < 1 µM | < 10000 nM | < 1 µM |  |
| CNC(=O)Nc1ccc(-c2cn([C@@H](C)c3ccccn3)c3cc(-c4c(C)noc4C)cnc23)cc1 [P-0563, 1-[4-[6-(3,5-dimethylisoxazol-4-yl)-1-[(1S)-1-(2-pyridyl)ethyl]pyrrolo[3,2-b]pyridin-3-yl]phenyl]-3-methyl-urea] | < 1 µM | < 10000 nM | < 1 µM |  |
| Cc1noc(C)c1-c1cnc2c(-c3ccc(NC(N)=O)cc3)cn(CC3(F)CCCCC3)c2c1 [P-0521, [4-[6-(3,5-dimethylisoxazol-4-yl)-1-[(1-fluorocyclohexyl)methyl]pyrrolo[3,2-b]pyridin-3-yl]phenyl]urea] | < 1 µM | < 10000 nM | < 1 µM |  |
| Cc1noc(C)c1-c1cnc2c(-c3ccc(O)c(Cl)c3)cn(CC3(F)CCCCC3)c2c1 [P-0524] | < 1 µM | < 10000 nM | < 1 µM |  |
| Cc1noc(C)c1-c1cnc2c(-c3ccc(C(=O)O)cc3)cn(Cc3ccccn3)c2c1 [P-0431, 4-[6-(3,5-dimethylisoxazol-4-yl)-1-(2-pyridylmethyl)pyrrolo[3,2-b]pyridin-3-yl]benzoic acid] | < 1 µM | < 10000 nM | < 1 µM |  |
| Cc1noc(C)c1-c1cnc2c(-c3ccc(CO)cc3)cn(CC3CCC(F)(F)CC3)c2c1 [P-0601, [4-[1-[(4,4-difluorocyclohexyl)methyl]-6-(3,5-dimethylisoxazol-4-yl)pyrrolo[3,2-b]pyridin-3-yl]phenyl]methanol] | < 1 µM | < 10000 nM | < 1 µM |  |
| Cc1noc(C)c1-c1cnc2c(I)cn(CC3CCCC3)c2c1 [P-0549] | < 1 µM | < 10000 nM | < 1 µM |  |
| [2H]C([2H])(C1CCC(F)(F)CC1)n1cc(-c2ccnc(C3CC3)c2)c2ncc(-c3c(C)noc3C)cc21 [P-0341, 4-[3-(2-cyclopropyl-4-pyridyl)-1-[dideuterio-(4,4-difluorocyclohexyl)methyl]pyrrolo[3,2-b]pyridin-6-yl]-3,5-dimethyl-isoxazole] |  | < 10000 nM | < 1 µM | < 1 µM |
| Cc1noc(C)c1-c1cnc2c(-c3ccc(C#N)nc3)cn([C@@H](C)c3ccccn3)c2c1 [P-0595, 5-[6-(3,5-dimethylisoxazol-4-yl)-1-[(1S)-1-(2-pyridyl)ethyl]pyrrolo[3,2-b]pyridin-3-yl]pyridine-2-carbonitrile] | < 1 µM | < 10000 nM | < 1 µM |  |
| [2H]C([2H])(C1CCC(F)(F)CC1)n1cc(-c2ccc(O)nc2)c2ncc(-c3c(C)noc3C)cc21 [P-0342, 5-[1-[dideuterio-(4,4-difluorocyclohexyl)methyl]-6-(3,5-dimethylisoxazol-4-yl)pyrrolo[3,2-b]pyridin-3-yl]pyridin-2-ol] |  | < 10000 nM | < 1 µM | < 1 µM |
| [2H]C([2H])(C1CCC(F)(F)CC1)n1cc(-c2ccc(=O)n(C)c2)c2ncc(-c3c(C)noc3C)cc21 [P-0345, 5-[1-[dideuterio-(4,4-difluorocyclohexyl)methyl]-6-(3,5-dimethylisoxazol-4-yl)pyrrolo[3,2-b]pyridin-3-yl]-1-methyl-pyridin-2-one] |  | < 10000 nM | < 1 µM | < 1 µM |
| Cc1noc(C)c1-c1cnc2c(-c3cnn(C)c3)cn([C@H](C)c3ccccn3)c2c1 [P-0519, 3,5-dimethyl-4-[3-(1-methylpyrazol-4-yl)-1-[(1R)-1-(2-pyridyl)ethyl]pyrrolo[3,2-b]pyridin-6-yl]isoxazole] | < 1 µM | < 10000 nM | < 1 µM |  |
| Cc1cc(-c2cnc3ccn(CC4CCC(F)(F)CC4)c3c2)cnn1 [P-0286] |  | < 10000 nM | < 1 µM | 10 to 200 µM |
| Cc1noc(C)c1-c1cnc2c(-c3ccc(C(=O)O)cc3F)cn(CC3CCC(F)(F)CC3)c2c1 [P-0417, 4-[1-[(4,4-difluorocyclohexyl)methyl]-6-(3,5-dimethylisoxazol-4-yl)pyrrolo[3,2-b]pyridin-3-yl]-3-fluoro-benzoic acid] |  | < 10000 nM | < 1 µM | < 1 µM |
| Cc1noc(C)c1-c1cnc2c(-c3ccc(N)nc3)cn(CC3(F)CCCCC3)c2c1 [P-0520, 5-[6-(3,5-dimethylisoxazol-4-yl)-1-[(1-fluorocyclohexyl)methyl]pyrrolo[3,2-b]pyridin-3-yl]pyridin-2-amine] | < 1 µM | < 10000 nM | < 1 µM |  |
| [2H]C([2H])(C1CCC(F)(F)CC1)n1cc(-c2cnn(C(=O)OC(C)(C)C)c2)c2ncc(-c3c(C)noc3C)cc21 [P-0362, tert-butyl 4-[1-[dideuterio-(4,4-difluorocyclohexyl)methyl]-6-(3,5-dimethylisoxazol-4-yl)pyrrolo[3,2-b]pyridin-3-yl]pyrazole-1-carboxylate] |  | < 10000 nM | < 1 µM | < 1 µM |
| Cc1noc(C)c1-c1cnc2c(-c3cnc(C4CC4)nc3)cn(CC3CCC(F)(F)CC3)c2c1 [P-0405, 4-[3-(2-cyclopropylpyrimidin-5-yl)-1-[(4,4-difluorocyclohexyl)methyl]pyrrolo[3,2-b]pyridin-6-yl]-3,5-dimethyl-isoxazole] |  | < 10000 nM | < 1 µM | < 1 µM |
| Cc1noc(C)c1-c1cnc2c(-c3ccc(N)nc3)cn(CC3CCC(F)(F)CC3)c2c1 [P-0401, 5-[1-[(4,4-difluorocyclohexyl)methyl]-6-(3,5-dimethylisoxazol-4-yl)pyrrolo[3,2-b]pyridin-3-yl]pyridin-2-amine] |  | < 10000 nM | < 1 µM | < 1 µM |
| Cc1noc(C)c1-c1cnc2c(-c3ccc(C(F)(F)C(=O)O)cc3)cn([C@@H](C)c3ccccn3)c2c1 [P-0566, 2,2-difluoro-2-(4-(6-(3,5-dimethylisoxazol-4-yl)-1-((S)-1-(pyridin-2-yl)ethyl)-1H-pyrrolo[3,2-b]pyridin-3-yl)phenyl)acetic acid] | 1 to 10 µM | < 10000 nM | < 1 µM |  |
| [2H]C([2H])(C1CCC(F)(F)CC1)n1cc(-c2ccc(C(=O)O)cc2)c2ncc(-c3c(C)noc3C)cc21 [P-0363, 4-[1-[dideuterio-(4,4-difluorocyclohexyl)methyl]-6-(3,5-dimethylisoxazol-4-yl)pyrrolo[3,2-b]pyridin-3-yl]benzoic acid] |  | < 10000 nM | < 1 µM | < 1 µM |
| CNC(=O)c1ccc(-c2cn(CC3CCC(F)(F)CC3)c3cc(-c4c(C)noc4C)cnc23)cc1 [P-0403, 4-[1-[(4,4-difluorocyclohexyl)methyl]-6-(3,5-dimethylisoxazol-4-yl)pyrrolo[3,2-b]pyridin-3-yl]-N-methyl-benzamide] |  | < 10000 nM | < 1 µM | < 1 µM |
| CCn1cc(-c2cn(CC3CCC(F)(F)CC3)c3cc(-c4c(C)noc4C)cnc23)cn1 [P-0409, 4-[1-[(4,4-difluorocyclohexyl)methyl]-3-(1-ethylpyrazol-4-yl)pyrrolo[3,2-b]pyridin-6-yl]-3,5-dimethyl-isoxazole] |  | < 10000 nM | < 1 µM | < 1 µM |
| [2H]C([2H])(C1CCC(F)(F)CC1)n1cc(-c2cnc(N)nc2)c2ncc(-c3c(C)noc3C)cc21 [P-0348, 5-[1-[dideuterio-(4,4-difluorocyclohexyl)methyl]-6-(3,5-dimethylisoxazol-4-yl)pyrrolo[3,2-b]pyridin-3-yl]pyrimidin-2-amine] |  | < 10000 nM | < 1 µM | < 1 µM |
